{"source": "patent US10307357B2", "about": "“Prebiotic oral care compositions containing an alkyl glycoside” (COLGATE-PALMOLIVE COMPANY, priority 2013, dated 2019)", "assay_in_all_cases": "Twenty-four hour optical density growth in BHI", "format_in_all_cases": "cell-based", "details_in_all_cases": "over 24 hours, control = 1", "key": {"Streptococcus sanguinis": {"tested_on": "Streptococcus sanguinis", "procedure": "(§1) The extent of growth of the tested bacteria in response to selected glycosides (β-methyl-D-galactoside and α-methyl-D-galactoside) was investigated by setting up growth curves in a nutritionally rich medium (brain heart infusion broth (BHI), Oxoid), over 24 hours. Late exponential growth phase liquid cultures were prepared by transferring the respective bacterium from blood agar plates to BHI and overnight incubation at 37° C. in an anaerobic atmosphere for A. viscosus, V. parvula, F. nucleatum, P. gingivalis, P. intermedia, T. forsythia, A. naeslundii, and C. sputigena, and in a 5% CO2 environment for S. salivarius, S. sanguinis, S. mitis, A. actinomycetemcomitans, S. mutans, S. sobrinus and S. gordonii. Overnight cultures were transferred to BHI and adjusted to a concentration of 1×10^7 CFU/ml (colony forming units per ml) by measuring the optical density at 600 nm (OD600) (BioRad SmartSpec 3000). For each strain, 200 μl of the bacterial suspension was added to a 96-well plate containing 20 μl of the respective glycosides. Final concentrations of the glycosides were set to 5, 10, 20 and 25 μmol/ml. […] Plates were incubated as previously described. For each combination of bacterium/glycoside, and for each of their respective controls (i.e. the particular bacterium in the nutritionally rich medium with no glycoside), the optical density was measured at 630 nm (OD630) at 0 h and 24 h (Thermo Scientific Multiskan Ascent). Additionally, the OD630 for combinations of bacterium/glycosides grown in a 5% CO2 environment were also measured every hour between 0 h and 9 h. […] The experiment was carried out on three different days (thus providing 3 biological replicas) and on each day the experiment was carried out in quadruple (thus providing 4 technical replicas) for each combination of bacterium with glycoside and for each control. For each day and for each combination, the average (mean) of the values obtained (as detailed above) for the four technical replicas was calculated to provide a single value for each combination on each day. The values shown in Tables 5 to 6, below, are the average (mean) of the three single values obtained for each combination of bacterium with glycoside (α-Methyl-D-Galactoside=α-MDG; β-Methyl-D-Galactoside=β-MDG)."}, "Fusobacterium nucleatum": {"tested_on": "Fusobacterium nucleatum", "procedure": "as §1"}, "Streptococcus mitis": {"tested_on": "Streptococcus mitis", "procedure": "as §1"}, "Streptococcus mutans": {"tested_on": "Streptococcus mutans", "procedure": "as §1"}, "Tannerella forsythia": {"tested_on": "Tannerella forsythia", "procedure": "as §1"}, "Porphyromonas gingivalis": {"tested_on": "Porphyromonas gingivalis", "procedure": "as §1"}, "Actinomyces viscosus": {"tested_on": "Actinomyces viscosus", "procedure": "as §1"}, "[1]": {"tested_on": "Aggregatibacter actinomycetemcomitans", "procedure": "as §1"}, "Actinomyces naeslundii": {"tested_on": "Actinomyces naeslundii", "procedure": "as §1"}, "Streptococcus sobrinus": {"tested_on": "Streptococcus sobrinus", "procedure": "as §1"}, "Streptococcus gordonii": {"tested_on": "Streptococcus gordonii", "procedure": "as §1"}, "Streptococcus salivarius": {"tested_on": "Streptococcus salivarius", "procedure": "as §1"}, "Capnocytophaga sputigena": {"tested_on": "Capnocytophaga sputigena", "procedure": "as §1"}, "Prevotella intermedia": {"tested_on": "Prevotella intermedia", "procedure": "as §1"}, "Veillonella parvula": {"tested_on": "Veillonella parvula", "procedure": "as §1"}}}
{"smiles": "CO[C@@H]1O[C@H](CO)[C@H](O)[C@H](O)[C@H]1O", "note": "[β-methyl-D-galactoside]", "values": [{"measurement": "maximal OD630 divided by control (extent of growth)", "setting": "Streptococcus sanguinis; 5 μmol/ml", "value": 0.8787}, {"measurement": "maximal OD630 divided by control (extent of growth)", "setting": "Streptococcus sanguinis; 10 μmol/ml", "value": 0.8540}, {"measurement": "maximal OD630 divided by control (extent of growth)", "setting": "Streptococcus sanguinis; 20 μmol/ml", "value": 0.8629}, {"measurement": "maximal OD630 divided by control (extent of growth)", "setting": "Streptococcus sanguinis; 25 μmol/ml", "value": 0.8842}, {"measurement": "maximal OD630 divided by control (extent of growth)", "setting": "Fusobacterium nucleatum; 5 μmol/ml", "value": 0.8134}, {"measurement": "maximal OD630 divided by control (extent of growth)", "setting": "Fusobacterium nucleatum; 10 μmol/ml", "value": 0.8181}, {"measurement": "maximal OD630 divided by control (extent of growth)", "setting": "Fusobacterium nucleatum; 20 μmol/ml", "value": 0.8161}, {"measurement": "maximal OD630 divided by control (extent of growth)", "setting": "Fusobacterium nucleatum; 25 μmol/ml", "value": 0.8213}, {"measurement": "maximal OD630 divided by control (extent of growth)", "setting": "Streptococcus mitis; 5 μmol/ml", "value": 0.8435}, {"measurement": "maximal OD630 divided by control (extent of growth)", "setting": "Streptococcus mitis; 10 μmol/ml", "value": 0.8256}, {"measurement": "maximal OD630 divided by control (extent of growth)", "setting": "Streptococcus mitis; 20 μmol/ml", "value": 0.9114}, {"measurement": "maximal OD630 divided by control (extent of growth)", "setting": "Streptococcus mitis; 25 μmol/ml", "value": 0.8116}, {"measurement": "maximal OD630 divided by control (extent of growth)", "setting": "Streptococcus mutans; 5 μmol/ml", "value": 0.9473}, {"measurement": "maximal OD630 divided by control (extent of growth)", "setting": "Streptococcus mutans; 10 μmol/ml", "value": 0.9083}, {"measurement": "maximal OD630 divided by control (extent of growth)", "setting": "Streptococcus mutans; 20 μmol/ml", "value": 0.7929}, {"measurement": "maximal OD630 divided by control (extent of growth)", "setting": "Streptococcus mutans; 25 μmol/ml", "value": 0.5618}, {"measurement": "maximal OD630 divided by control (extent of growth)", "setting": "Tannerella forsythia; 5 μmol/ml", "value": 0.9652}, {"measurement": "maximal OD630 divided by control (extent of growth)", "setting": "Tannerella forsythia; 10 μmol/ml", "value": 0.9920}, {"measurement": "maximal OD630 divided by control (extent of growth)", "setting": "Tannerella forsythia; 20 μmol/ml", "value": 0.9847}, {"measurement": "maximal OD630 divided by control (extent of growth)", "setting": "Tannerella forsythia; 25 μmol/ml", "value": 1.0042}, {"measurement": "maximal OD630 divided by control (extent of growth)", "setting": "Porphyromonas gingivalis; 5 μmol/ml", "value": 0.8852}, {"measurement": "maximal OD630 divided by control (extent of growth)", "setting": "Porphyromonas gingivalis; 10 μmol/ml", "value": 0.9738}, {"measurement": "maximal OD630 divided by control (extent of growth)", "setting": "Porphyromonas gingivalis; 20 μmol/ml", "value": 0.9498}, {"measurement": "maximal OD630 divided by control (extent of growth)", "setting": "Porphyromonas gingivalis; 25 μmol/ml", "value": 0.9364}, {"measurement": "maximal OD630 divided by control (extent of growth)", "setting": "Actinomyces viscosus; 5 μmol/ml", "value": 0.6467}, {"measurement": "maximal OD630 divided by control (extent of growth)", "setting": "Actinomyces viscosus; 10 μmol/ml", "value": 0.6333}, {"measurement": "maximal OD630 divided by control (extent of growth)", "setting": "Actinomyces viscosus; 20 μmol/ml", "value": 0.6745}, {"measurement": "maximal OD630 divided by control (extent of growth)", "setting": "Actinomyces viscosus; 25 μmol/ml", "value": 0.6464}, {"measurement": "maximal OD630 divided by control (extent of growth)", "setting": "[1]; 5 μmol/ml", "value": 0.7099}, {"measurement": "maximal OD630 divided by control (extent of growth)", "setting": "[1]; 10 μmol/ml", "value": 0.7723}, {"measurement": "maximal OD630 divided by control (extent of growth)", "setting": "[1]; 20 μmol/ml", "value": 0.7373}, {"measurement": "maximal OD630 divided by control (extent of growth)", "setting": "[1]; 25 μmol/ml", "value": 0.7472}, {"measurement": "maximal OD630 divided by control (extent of growth)", "setting": "Actinomyces naeslundii; 5 μmol/ml", "value": 0.9746}, {"measurement": "maximal OD630 divided by control (extent of growth)", "setting": "Actinomyces naeslundii; 10 μmol/ml", "value": 0.9516}, {"measurement": "maximal OD630 divided by control (extent of growth)", "setting": "Actinomyces naeslundii; 20 μmol/ml", "value": 0.9705}, {"measurement": "maximal OD630 divided by control (extent of growth)", "setting": "Actinomyces naeslundii; 25 μmol/ml", "value": 0.9802}, {"measurement": "maximal OD630 divided by control (extent of growth)", "setting": "Streptococcus sobrinus; 5 μmol/ml", "value": 0.8914}, {"measurement": "maximal OD630 divided by control (extent of growth)", "setting": "Streptococcus sobrinus; 10 μmol/ml", "value": 0.8818}, {"measurement": "maximal OD630 divided by control (extent of growth)", "setting": "Streptococcus sobrinus; 20 μmol/ml", "value": 0.9110}, {"measurement": "maximal OD630 divided by control (extent of growth)", "setting": "Streptococcus sobrinus; 25 μmol/ml", "value": 0.9111}, {"measurement": "maximal OD630 divided by control (extent of growth)", "setting": "Streptococcus gordonii; 5 μmol/ml", "value": 0.9811}, {"measurement": "maximal OD630 divided by control (extent of growth)", "setting": "Streptococcus gordonii; 10 μmol/ml", "value": 0.9760}, {"measurement": "maximal OD630 divided by control (extent of growth)", "setting": "Streptococcus gordonii; 20 μmol/ml", "value": 0.9954}, {"measurement": "maximal OD630 divided by control (extent of growth)", "setting": "Streptococcus gordonii; 25 μmol/ml", "value": 1.0054}, {"measurement": "maximal OD630 divided by control (extent of growth)", "setting": "Streptococcus salivarius; 5 μmol/ml", "value": 1.2275}, {"measurement": "maximal OD630 divided by control (extent of growth)", "setting": "Streptococcus salivarius; 10 μmol/ml", "value": 1.5208}, {"measurement": "maximal OD630 divided by control (extent of growth)", "setting": "Streptococcus salivarius; 20 μmol/ml", "value": 1.7353}, {"measurement": "maximal OD630 divided by control (extent of growth)", "setting": "Streptococcus salivarius; 25 μmol/ml", "value": 1.7445}, {"measurement": "maximal OD630 divided by control (extent of growth)", "setting": "Capnocytophaga sputigena; 5 μmol/ml", "value": 0.8841}, {"measurement": "maximal OD630 divided by control (extent of growth)", "setting": "Capnocytophaga sputigena; 10 μmol/ml", "value": 0.8633}, {"measurement": "maximal OD630 divided by control (extent of growth)", "setting": "Capnocytophaga sputigena; 20 μmol/ml", "value": 0.8645}, {"measurement": "maximal OD630 divided by control (extent of growth)", "setting": "Capnocytophaga sputigena; 25 μmol/ml", "value": 0.8575}, {"measurement": "maximal OD630 divided by control (extent of growth)", "setting": "Prevotella intermedia; 5 μmol/ml", "value": 0.9000}, {"measurement": "maximal OD630 divided by control (extent of growth)", "setting": "Prevotella intermedia; 10 μmol/ml", "value": 0.8909}, {"measurement": "maximal OD630 divided by control (extent of growth)", "setting": "Prevotella intermedia; 20 μmol/ml", "value": 0.9071}, {"measurement": "maximal OD630 divided by control (extent of growth)", "setting": "Prevotella intermedia; 25 μmol/ml", "value": 0.9102}, {"measurement": "maximal OD630 divided by control (extent of growth)", "setting": "Veillonella parvula; 5 μmol/ml", "value": 0.8912}, {"measurement": "maximal OD630 divided by control (extent of growth)", "setting": "Veillonella parvula; 10 μmol/ml", "value": 0.9129}, {"measurement": "maximal OD630 divided by control (extent of growth)", "setting": "Veillonella parvula; 20 μmol/ml", "value": 0.9145}, {"measurement": "maximal OD630 divided by control (extent of growth)", "setting": "Veillonella parvula; 25 μmol/ml", "value": 0.9462}]}
